From patent publication US11453703B2, “Heterotandem bicyclic peptide complexes” (BicycleTX Limited, priority 2018, dated 2022) come the findings set out here.

pEC50, pKd: −log10 of the molar value.

In one data set the target is human EphA2 protein (Homo sapiens, UniProt P29317). Briefly: EphA2 Biacore (SPR) binding assay. The conditions noted are these: biotinylated human EphA2, 25° C. How it is done: Biacore experiments were performed to determine ka (M^−1s^−1), kd (s^−1), KD (nM) values of heterotandem peptides binding to human EphA2 protein.
human EphA2 protein, sequence (P29317 24-976): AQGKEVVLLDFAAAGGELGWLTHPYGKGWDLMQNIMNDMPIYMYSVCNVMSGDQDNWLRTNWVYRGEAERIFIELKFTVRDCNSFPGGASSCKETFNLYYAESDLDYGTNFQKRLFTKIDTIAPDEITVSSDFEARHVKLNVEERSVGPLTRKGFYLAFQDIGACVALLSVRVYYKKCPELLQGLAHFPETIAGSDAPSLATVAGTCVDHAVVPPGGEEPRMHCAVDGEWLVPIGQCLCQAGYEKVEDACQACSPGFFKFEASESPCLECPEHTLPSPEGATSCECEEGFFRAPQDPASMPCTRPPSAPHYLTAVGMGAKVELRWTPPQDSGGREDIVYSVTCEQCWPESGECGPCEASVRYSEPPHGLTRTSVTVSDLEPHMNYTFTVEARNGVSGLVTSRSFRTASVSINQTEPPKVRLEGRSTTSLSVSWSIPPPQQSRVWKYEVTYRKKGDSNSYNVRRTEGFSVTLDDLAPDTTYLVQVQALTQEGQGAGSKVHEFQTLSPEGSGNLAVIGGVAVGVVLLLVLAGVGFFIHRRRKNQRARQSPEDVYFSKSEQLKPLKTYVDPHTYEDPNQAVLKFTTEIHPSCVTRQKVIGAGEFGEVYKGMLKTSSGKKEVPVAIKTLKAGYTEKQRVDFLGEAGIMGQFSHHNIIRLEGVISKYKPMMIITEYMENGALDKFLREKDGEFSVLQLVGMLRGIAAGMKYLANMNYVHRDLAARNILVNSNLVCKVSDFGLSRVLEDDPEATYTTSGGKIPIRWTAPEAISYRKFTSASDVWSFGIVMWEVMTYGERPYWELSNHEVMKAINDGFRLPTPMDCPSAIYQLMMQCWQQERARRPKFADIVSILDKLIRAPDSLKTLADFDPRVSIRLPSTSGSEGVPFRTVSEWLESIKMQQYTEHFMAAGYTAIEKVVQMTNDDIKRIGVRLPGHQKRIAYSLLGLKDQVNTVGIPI
EphA2 were biotinylated with EZ-Link™ Sulfo-NHS-LC-Biotin for 1 hour in 4 mM sodium acetate, 100 mM NaCl, pH 5.4 with a 3× molar excess of biotin over protein. The degree of labelling was determined using a Fluorescence Biotin Quantification Kit (Thermo) after dialysis of the reaction mixture into PBS. For analysis of peptide binding, a Biacore T200 instrument was used with a XanTec CMD500D chip. Streptavidin was immobilized on the chip using standard amine-coupling chemistry at 25° C. with HBS-N (10 mM HEPES, 0.15 M NaCl, pH 7.4) as the running buffer. Briefly, the carboxymethyl dextran surface was activated with a 7 min injection of a 1:1 ratio of 0.4 M 1-ethyl-3-(3-dimethylaminopropyl) carbodiimide hydrochloride (EDC)/0.1 M N-hydroxy succinimide (NHS) at a flow rate of 10 it/min. For capture of streptavidin, the protein was diluted to 0.2 mg/ml in 10 mM sodium acetate (pH 4.5) and captured by injecting 120 μl onto the activated chip surface. Residual activated groups were blocked with a 7 min injection of 1 M ethanolamine (pH 8.5):HBS-N (1:1). Buffer was changed to PBS/0.05% Tween 20 and biotinylated EphA2 was captured to a level of 500-1500 RU using a dilution of protein to 0.2 μM in buffer. A dilution series of the peptides was prepared in this buffer with a final DMSO concentration of 0.5% with a top peptide concentration was 50 or 100 nM and 6 further 2-fold dilutions. The SPR analysis was run at 25° C. at a flow rate of 90 μl/min with 60 seconds association and 900-1200 seconds dissociation. Data were corrected for DMSO excluded volume effects. All data were double-referenced for blank injections and reference surface using standard processing procedures and data processing and kinetic fitting were performed using Scrubber software, version 2.0c (BioLogic Software). Data were fitted using simple 1:1 binding model allowing for mass transport effects where appropriate.
(SPR reads the build-up and loss of mass on a sensor chip optically.)

Data set [1] concerns the target T1, CD137 (Homo sapiens, UniProt Q07011). Nature of the data set: CD137 reporter assay, co-culture with EphA2 tumour cells. In kind it is cell-based. On the set-up: host or cells: Jurkat reporter cells. The conditions noted are these: tumour target EphA2, co-culture with SC-OV-3, 6 h. Summed up: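 Jurkat CD137 reporter cells co-cultured with tumour cells and serially diluted test articles in RPMI-1640 + 1% FBS, 6 h at 37 °C, 5% CO2. Luminescence read after Bio-Glo; fold change over cells-only background fitted log(agonist) vs response for EC50 (nM) and maximal fold induction.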
For orientation: A reporter such as luciferase makes a cellular process visible.

Data set [2] addresses T1, CD137. Nature of the data set: CD137 Biacore (SPR) binding assay. The conditions noted are these: biotinylated human CD137, 25° C. Further details: purchased R&D systems. The protocol: Biacore experiments were performed to determine ka (M^−1s^−1), kd (s^−1), KD (nM) values of heterotandem peptides binding to human CD137 protein. […] The protein was desalted to remove uncoupled biotin using spin columns into PBS.
For analysis of peptide binding, a Biacore T200 or a Biacore 3000 instrument was used with a XanTec CMD500D chip. Streptavidin was immobilized on the chip using standard amine-coupling chemistry at 25° C. with HBS-N (10 mM HEPES, 0.15 M NaCl, pH 7.4) as the running buffer. Briefly, the carboxymethyl dextran surface was activated with a 7 min injection of a 1:1 ratio of 0.4 M 1-ethyl-3-(3-dimethylaminopropyl) carbodiimide hydrochloride (EDC)/0.1 M N-hydroxy succinimide (NHS) at a flow rate of 10 μl/min. For capture of streptavidin, the protein was diluted to 0.2 mg/ml in 10 mM sodium acetate (pH 4.5) and captured by injecting 120 μl of onto the activated chip surface. Residual activated groups were blocked with a 7 min injection of 1 M ethanolamine (pH 8.5) and biotinylated CD137 captured to a level of 270-1500 RU. Buffer was changed to PBS/0.05% Tween 20 and a dilution series of the peptides was prepared in this buffer with a final DMSO concentration of 0.5%. The top peptide concentration was 500 nM with 6 further 2-fold or 3-fold dilutions. The SPR analysis was run at 25° C. at a flow rate of 90 μl/min with 60 seconds association and 900 seconds dissociation. After each cycle a regeneration step (10 μl of 10 mM glycine pH 2) was employed. Data were corrected for DMSO excluded volume effects as needed. All data were double-referenced for blank injections and reference surface using standard processing procedures and data processing and kinetic fitting were performed using Scrubber software, version 2.0c (BioLogic Software). Data were fitted using simple 1:1 binding model allowing for mass transport effects where appropriate.

For data set [3], the system named is human PBMC co-cultured with 4T1-D02 (Nectin4+). Nature of the data set: Human PBMC-4T1 co-culture (cytokine release) assay. It is filed as cell-based. The conditions noted are these: anti-CD3 stimulated PBMC, 48 hours. The protocol: Mouse mammary gland tumor cell line 4T1-1 (4T1-Parental) and murine Nectin-4 overexpressing 4T1 (4T1-D02) were cultured in RPMI1640 supplemented with 10% heat-inactivated Fetal Bovine Serum, 100 I.U/ml Penicillin and 100 I.U/Streptomycin, 20 mM HEPES, 1× Non-Essential Amino Acids, and 2 mM L-Glutamine (RPMI working medium). Frozen PBMCs from healthy human donors were thawed and washed one time in room temperature PBS, and then resuspended in RPMI working medium. For tumor cell and PBMC co-culture, 10000 PBMCs and 2000 tumor cells (5:1) were mixed and plated in each well of a 384 well plate. For stimulating human PBMCs, 125 ng/ml of soluble anti-CD3 mAb (clone OKT3) was added to the culture on day 0. Test, control compounds or vehicle controls were added to respective wells and brought the final volume per well to 100u1. Plates were incubated in a 37° C. cell culture incubator with 5% CO2 for up to three days. Supernatants were collected 48 hours after stimulation, and human IL-2 and IFFγ were detected using HTRF assays. Raw data were analyzed using Excel or Prism software to generate standard curves to interpolate protein concentrations. Data represents one study with three different donor PBMC tested in experimental duplicates.

Data set [4] concerns the target T1, CD137. Briefly: CD137 reporter assay, co-culture with Nectin-4 tumour cells.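 Also: jurkat reporter cells co-cultured with tumour cells and test article for 6 h, luminescence signal relative to Jurkat plus tumour cells lacking test article.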 It is filed as cell-based. On the set-up: host or cells: Jurkat reporter cells. The conditions noted are these: read-out: Fold Induction over Background at 100 nM.

T1 sequence (Q07011 24-255): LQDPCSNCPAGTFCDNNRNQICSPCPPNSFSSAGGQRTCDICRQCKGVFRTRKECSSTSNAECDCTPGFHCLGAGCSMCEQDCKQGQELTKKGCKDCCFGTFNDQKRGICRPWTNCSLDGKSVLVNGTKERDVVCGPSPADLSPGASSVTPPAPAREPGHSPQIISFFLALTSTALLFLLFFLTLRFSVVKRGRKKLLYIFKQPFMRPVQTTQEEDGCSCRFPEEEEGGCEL

For `CCCC[C@@H]1NC(=O)[C@H](Cc2ccc(O)cc2)NC(=O)[C@@H]2CCCN2C(=O)[C@H](CC(=O)O)NC(=O)[C@H](C)NC(=O)[C@H](Cc2ccccc2)NC(=O)[C@@H]2CSCCC(=O)N3CN(CN(C3)C(=O)CCSC[C@@H](C(=O)N[C@@H](CNC(=O)CCc3cn(CCOCCOCCOCCOCCOCCNC(=O)NCCC(=O)N(C)CC(=O)N(C)CC(=O)N(C)CC(=O)N(C)CC(=O)N(C)CC(=O)N(C)CC(=O)N(C)CC(=O)N(C)CC(=O)N(C)CC(=O)N(C)CC(=O)N[C@@H](C)C(=O)N[C@@H](CCCCNC(=N)N)C(=O)N[C@@H](CC(=O)O)C(=O)N[C@H]4CSCCC(=O)N5CN6CN(C5)C(=O)CCSC[C@H](NC(=O)[C@H](CC(C)C)NC(=O)[C@@H]5CCCN5C(=O)[C@H](CC(N)=O)NC(=O)[C@H](C(C)C)NC(=O)[C@H](CC(C)C)NC(=O)[C@@H]5C[C@@H](O)CN5C4=O)C(=O)N[C@@H](CC(C)C)C(=O)N[C@@H](Cc4c[nH]cn4)C(=O)N4CCC[C@H]4C(=O)N[C@H](CC(=O)O)C(=O)N[C@@H](Cc4c[nH]c5ccccc45)C(=O)N[C@@H](CCCCNC(=N)N)C(=O)N[C@H](C(N)=O)CSCCC6=O)nn3)C(N)=O)NC1=O)C(=O)CCSC[C@H](NC(=O)[C@H](C)NC(C)=O)C(=O)N[C@@H]([C@@H](C)CC)C(=O)N[C@@H](CCC(=O)O)C(=O)N[C@@H](CCC(=O)O)C(=O)NCC(=O)N[C@@H](CCC(N)=O)C(=O)N[C@@H](Cc1ccc(O)cc1)C(=O)N2` [BCY9659], the pKd (as a rule, the negative decadic logarithm of the Kd, by convention in mol/L) was 8.99 on human EphA2 protein and 7.06 on CD137 [2]. Also, on CD137 [1], the pEC50 (commonly the EC50 on a negative log10 scale, so that one unit is a factor of ten) was 8.00. Moreover, the “Fold Induction over Background” value at CD137 [1] is 7 fold.
The matching figures for `CCCC[C@@H]1NC(=O)[C@H](Cc2ccc(O)cc2)NC(=O)[C@@H]2CCCN2C(=O)[C@H](CC(=O)O)NC(=O)[C@H](C)NC(=O)[C@H](Cc2ccccc2)NC(=O)[C@@H]2CSCCC(=O)N3CN(CN(C3)C(=O)CCSC[C@@H](C(=O)N[C@@H](CNC(=O)CCc3cn(CCCNC(=O)CN(C)C(=O)CN(C)C(=O)CN(C)C(=O)CN(C)C(=O)CN(C)C(=O)CN(C)C(=O)CN(C)C(=O)CN(C)C(=O)CN(C)C(=O)CN(C)C(=O)CN(C)C(=O)CN(C)C(=O)CN(C)C(=O)CN(C)C(=O)CN(C)C(=O)COCCOCCOCCOCCOCCNC(=O)NCCC(=O)N(C)CC(=O)N(C)CC(=O)N(C)CC(=O)N(C)CC(=O)N(C)CC(=O)N(C)CC(=O)N(C)CC(=O)N(C)CC(=O)N(C)CC(=O)N(C)CC(=O)N[C@@H](C)C(=O)N[C@@H](CCCCNC(=N)N)C(=O)N[C@@H](CC(=O)O)C(=O)N[C@H]4CSCCC(=O)N5CN6CN(C5)C(=O)CCSC[C@H](NC(=O)[C@H](CC(C)C)NC(=O)[C@@H]5CCCN5C(=O)[C@H](CC(N)=O)NC(=O)[C@H](C(C)C)NC(=O)[C@H](CC(C)C)NC(=O)[C@@H]5C[C@@H](O)CN5C4=O)C(=O)N[C@@H](CC(C)C)C(=O)N[C@@H](Cc4c[nH]cn4)C(=O)N4CCC[C@H]4C(=O)N[C@H](CC(=O)O)C(=O)N[C@@H](Cc4c[nH]c5ccccc45)C(=O)N[C@@H](CCCCNC(=N)N)C(=O)N[C@H](C(N)=O)CSCCC6=O)nn3)C(N)=O)NC1=O)C(=O)CCSC[C@H](NC(=O)[C@H](C)NC(C)=O)C(=O)N[C@@H]([C@@H](C)CC)C(=O)N[C@@H](CCC(=O)O)C(=O)N[C@@H](CCC(=O)O)C(=O)NCC(=O)N[C@@H](CCC(N)=O)C(=O)N[C@@H](Cc1ccc(O)cc1)C(=O)N2` [BCY9657]: 8.96, 6.59, 8.05 and 26 fold.
As to `CCCC[C@@H]1NC(=O)[C@H](Cc2ccc(O)cc2)NC(=O)[C@@H]2CCCN2C(=O)[C@H](CC(=O)O)NC(=O)[C@@H](C)NC(=O)[C@H](Cc2ccccc2)NC(=O)[C@@H]2CSCCC(=O)N3CN(CN(C3)C(=O)CCSC[C@@H](C(=O)N[C@@H](CNC(=O)CCOCCOCCOCCOCCOCCOCCOCCOCCOCCOCCOCCOCCn3cc(CCC(=O)NCCC(=O)N(C)CC(=O)N(C)CC(=O)N(C)CC(=O)N(C)CC(=O)N(C)CC(=O)N(C)CC(=O)N(C)CC(=O)N(C)CC(=O)N(C)CC(=O)N(C)CC(=O)N[C@H]4CSCCC(=O)N5CN6CN(C5)C(=O)CCSC[C@H](NC(=O)[C@@H](CC(=O)O)NC(=O)[C@H](Cc5cccc7ccccc57)NC(=O)[C@@H]5CCCN5C4=O)C(=O)N[C@@H](CCSC)C(=O)N[C@@H](CCCCNC(=N)N)C(=O)N[C@@H](CC(=O)O)C(=O)N[C@@H](Cc4c[nH]c5ccccc45)C(=O)N[C@@H](CO)C(=O)N[C@@H]([C@@H](C)O)C(=O)N4CCC[C@H]4C(=O)N4C[C@H](O)C[C@H]4C(=O)N[C@@H](Cc4c[nH]c5ccccc45)C(=O)N[C@H](C(N)=O)CSCCC6=O)nn3)C(N)=O)NC1=O)C(=O)CCSC[C@H](NC(=O)[C@H](C)NC(C)=O)C(=O)N[C@@H]([C@@H](C)CC)C(=O)N[C@@H](CCC(=O)O)C(=O)N[C@@H](CCC(=O)O)C(=O)NCC(=O)N[C@@H](CCC(N)=O)C(=O)N[C@@H](Cc1ccc(O)cc1)C(=O)N2` [BCY9351], the “max IFN-y” value in data set [3] is on record as “No Activity up to 1 μM”. The pKd at CD137 [2] was 5.44. Besides, on CD137 [4], the fold induction at 0.1 µM was below 2.
